Like-named read-outs stand apart in the source and are kept apart here. Values belong to the molecule of their own block, whether it stands above or below them.
Legend:
[1] = cited from earlier work
[2] = PAMPA permeability; assay type: in vitro ADME
Description: PAMPA permeability of the selected compositions was measured in order to select the pharmaceutical Tadalafil compositions having the best in-vitro performance (FIG. 2). PAMPA permeability measurements were performed as described by M. Kansi et al. (Journal of medicinal chemistry, 41, (1998) pp 1007) with modifications based on S. Bendels et al (Pharmaceutical research, 23 (2006) pp 2525). Permeability was measured in a 96-well plate assay across an artificial membrane composed of dodecane with 20% soy lecithin supported by a PVDF membrane (Millipore, USA). The receiver compartment was phosphate buffered saline (pH 7.0) supplemented with 1% sodium dodecyl sulfate. The assay was performed at room temperature; incubation time was 4 hours in ultrapurified water or 10-20 and 30 minutes in simulates saliva, respectively. The concentration in the receiver compartment was determined by UV-VIS spectrophotometry (Thermo Scientific Genesys S10).
PAMPA permeabilities of Tadalafil pharmaceutical compositions in water (H2O), FaSSIF (Fa) and FeSSIF (Fe) media were above 7.6×10^−6 cm/s, 7.2×10^−6 cm/s and 4.3×10^−6 cm/s, respectively, while it was 0.6×10^−6 cm/s, 0.6×10^−6 cm/s and 0.8*10^−6 cm/s in water, FaSSIF and FeSSIF media for the unformulated, crystalline reference. PAMPA permeability of Cialis® in water, FaSSIF and FeSSIF media was above 0.9×10^−6 cm/s, 0.8×10^−6 cm/s and 1.1×10^−6 cm/s, respectively.
PAMPA permeability of the solid Tadalafil pharmaceutical compositions was used to monitor the physical stability of the pharmaceutical formulation. PAMPA permeability was measured after storage at different conditions.

[3] = 10 mg/kg, beagle dog, cited from earlier work
[4] = cited from earlier work; remark: listed apart in the source

Compound: Cc1cccc(O)c1O [Methylcatechol]
Methylcatechol concentrations relative to glucuronide concentrations ([1]; circulating metabolites of Tadalafil): less than 10%

Papp ([2]; pH 7, FaSSIF): 0.6 ×10⁻⁶ cm/s | Papp ([2]; pH 7, FeSSIF): 0.8 ×10⁻⁶ cm/s | Papp at 4 h ([2]; pH 7, Water): 0.6 ×10⁻⁶ cm/s
Compound: CN1CC(=O)N2[C@H](c3ccc4c(c3)OCO4)c3[nH]c4ccccc4c3C[C@@H]2C1=O [Tadalafil]
Estimated F ([3]; iv, published (reference)): 100% | AUC24 ([3]; iv, published): 22894 ng·h/mL | Cmax ([3]; iv, published): 3663 ng/mL | AUC24 ([3]; oral, published): 4109 ± 3141 ng·h/mL | Cmax ([3]; oral, published): 526 ± 281 ng/mL | Estimated F ([3]; oral, published): 18% | tmax ([3]; oral, published): 3 h | Exposure (AUC) versus dose ([1]; dose range of 2.5 to 20 mg, healthy subjects): increases proportionally with dose | Fraction of administered dose in semen ([1]; healthy subjects): Less than 0.0005% | Mean oral clearance ([1]; healthy subjects): 2.5 L/h | Mean terminal half-life ([1]; healthy subjects): 17.5 h | Steady-state exposure relative to a single dose ([1]; once-daily dosing): approximately 1.6 fold | Time to steady-state plasma concentrations ([1]; once-daily dosing): ≤ 5 days | Mean apparent volume of distribution ([1]; oral administration): approximately 63 L | Effect of food on rate and extent of absorption ([1]; oral): not influenced by food | Excretion in the feces ([1]; predominantly as metabolites): approximately 61 % of the dose | Excretion in the urine ([1]; predominantly as metabolites): approximately 36 % of the dose | tmax values ([1]; range): 0.5 to 6 h | Fraction in plasma bound to proteins ([1]; therapeutic concentrations): 94% | Solubility ([4]; ethanol): very slightly soluble | Solubility ([4]; water): practically insoluble

— US10500202B2, “Pharmaceutical formulation containing tadalafil” (Druggability Technologies IP Holdco Limited, priority 2016, dated 2019)
